Where two headings read alike, the source gives them in different places.
Assays:
hEP2 [1] = molecular target: T1, hEP2 (Homo sapiens, UniProt P43116); test: hEP2 binding (Ki); details: the 3rd table; read-out: EP2 data Ki
Description: (§1) U.S. patent application Ser. No. 11/553,143, filed on Oct. 26, 2006, describes the methods used to obtain the in vitro data in the table below.

hEP4 [2] = molecular target: T2, hEP4 (Homo sapiens, UniProt P35408); test: hEP4 binding (Ki); details: the 3rd table; read-out: EP4 data KI
Description: as §1

hEP3 = molecular target: T3, hEP3 (Homo sapiens, UniProt P43115); test: Other receptors: hEP3 / hEP3A; type: cell-based
T3 sequence (P43115 1-390): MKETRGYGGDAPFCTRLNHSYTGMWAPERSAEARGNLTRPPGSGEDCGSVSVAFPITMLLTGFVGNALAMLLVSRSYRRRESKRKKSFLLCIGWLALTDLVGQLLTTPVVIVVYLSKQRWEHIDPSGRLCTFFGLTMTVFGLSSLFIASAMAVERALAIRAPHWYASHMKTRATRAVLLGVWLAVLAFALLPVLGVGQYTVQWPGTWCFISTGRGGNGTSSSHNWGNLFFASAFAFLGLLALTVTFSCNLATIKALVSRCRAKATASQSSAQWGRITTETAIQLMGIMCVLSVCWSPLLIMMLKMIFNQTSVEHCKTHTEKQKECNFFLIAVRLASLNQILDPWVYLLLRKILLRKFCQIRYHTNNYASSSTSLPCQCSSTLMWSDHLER
Description: as §1

hEP2 [3] = molecular target: T1, hEP2; test: hEP2 cAMP functional assay; type: cell-based; details: the 3rd table; read-out: EP2 data cAMP EC50
Description: as §1

hEP4 [4] = molecular target: T2, hEP4; test: hEP4 flipr functional assay; type: cell-based; details: the 3rd table; read-out: EP4 data flipr EC50
Description: as §1

hDP = molecular target: T4, hDP (Homo sapiens, UniProt Q13258); test: Other receptors: hDP; type: cell-based; details: the 3rd table; read-out: Other Receptors (ED50 in nM) hDP
T4 sequence (Q13258 1-359): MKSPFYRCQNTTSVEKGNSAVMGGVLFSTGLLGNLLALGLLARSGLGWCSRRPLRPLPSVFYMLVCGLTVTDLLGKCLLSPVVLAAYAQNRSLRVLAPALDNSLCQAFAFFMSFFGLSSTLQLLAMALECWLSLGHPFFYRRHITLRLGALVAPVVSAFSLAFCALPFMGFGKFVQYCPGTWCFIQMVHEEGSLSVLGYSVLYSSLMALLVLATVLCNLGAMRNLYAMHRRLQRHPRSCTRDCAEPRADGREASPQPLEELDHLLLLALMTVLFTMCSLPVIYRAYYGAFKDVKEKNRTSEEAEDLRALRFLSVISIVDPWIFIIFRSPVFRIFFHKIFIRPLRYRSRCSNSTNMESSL
Description: as §1

hEP2 [5] = molecular target: T1, hEP2; test: hEP2 flipr functional assay; type: cell-based; details: the 3rd table; read-out: EP2 data flipr EC50
Description: as §1

hEP1 = molecular target: T5, hEP1 (Homo sapiens, UniProt P34995); test: Other receptors: hEP1; type: cell-based; details: the 3rd table; read-out: Other Receptors (ED50 in nM) hEP1
T5 sequence (P34995 1-402): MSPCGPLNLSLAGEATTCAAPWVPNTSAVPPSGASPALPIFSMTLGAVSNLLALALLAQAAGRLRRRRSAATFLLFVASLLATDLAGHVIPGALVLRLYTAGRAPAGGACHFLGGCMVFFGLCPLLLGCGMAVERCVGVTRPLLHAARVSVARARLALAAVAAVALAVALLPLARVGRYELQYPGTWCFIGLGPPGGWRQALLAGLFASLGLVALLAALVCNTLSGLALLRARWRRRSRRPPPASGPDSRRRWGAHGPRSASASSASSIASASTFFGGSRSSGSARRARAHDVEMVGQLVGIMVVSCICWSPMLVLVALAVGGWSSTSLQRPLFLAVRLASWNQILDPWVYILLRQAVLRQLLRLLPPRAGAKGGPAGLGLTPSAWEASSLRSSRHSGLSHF
Description: as §1

normotensive dogs [6] = test: Ocular surface hyperemia in normotensive dogs; type: in vivo; set-up: scale not given here; details: once daily for 5 days
Procedure: (§2) U.S. Pat. No. 7,091,231 describes the methods used for these in vivo tests. 5-{3-[1R,2S,3R,5R)-5-Chloro-2-(3,5-dichloro-phenoxymethyl)-3-hydroxy-cyclopentyl]-propyl}-thiophene-2-carboxylic acid was tested at multiple concentrations in normotensive dogs, dosing once daily for 5 days. At 0.1%, the maximum intraocular pressure (IOP) decrease from baseline was 7.5 mmHg (48%) at 30 h; the maximum ocular surface hyperemia (OSH) score was 2.75 at 26 h. At 0.01%, the maximum IOP decrease from baseline was 7.5 mmHg (43%) at 76 h; the maximum OSH score was 2.0 at 26 h. At 0.005%, the maximum IOP decrease from baseline was 6.6 mmHg (35%) at 78 h; the maximum OSH score was 1.75 at 74 h. This compound was also tested in laser-induced hypertensive monkeys, using one single day dose. At 0.01%, the maximum IOP decrease from baseline was 20.2 mmHg (53%) at 24 h.

normotensive dogs [7] = test: Intraocular pressure in normotensive dogs; type: in vivo; details: Canis lupus familiaris, topical, 120 h, once daily for 5 days, read-out: maximum IOP decrease from baseline (percent)
Procedure: as §2

[8] = system: laser-induced hypertensive monkeys; test: Intraocular pressure in laser-induced hypertensive monkeys; type: in vivo; details: one single day dose
Procedure: as §2

[9] = the 3rd table, read-out: Other Receptors (ED50 in nM) hEP3A

T1 sequence (P43116 whole entry): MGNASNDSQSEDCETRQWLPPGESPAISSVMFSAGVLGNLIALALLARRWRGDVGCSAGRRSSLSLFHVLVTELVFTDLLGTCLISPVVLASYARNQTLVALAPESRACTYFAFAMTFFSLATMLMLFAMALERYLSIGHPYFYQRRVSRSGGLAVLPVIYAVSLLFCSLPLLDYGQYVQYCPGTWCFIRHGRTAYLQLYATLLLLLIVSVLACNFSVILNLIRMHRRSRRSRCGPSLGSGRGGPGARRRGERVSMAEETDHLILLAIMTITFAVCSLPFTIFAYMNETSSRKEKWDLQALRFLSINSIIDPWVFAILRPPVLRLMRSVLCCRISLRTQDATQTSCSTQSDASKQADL
T2 sequence (P35408 whole entry): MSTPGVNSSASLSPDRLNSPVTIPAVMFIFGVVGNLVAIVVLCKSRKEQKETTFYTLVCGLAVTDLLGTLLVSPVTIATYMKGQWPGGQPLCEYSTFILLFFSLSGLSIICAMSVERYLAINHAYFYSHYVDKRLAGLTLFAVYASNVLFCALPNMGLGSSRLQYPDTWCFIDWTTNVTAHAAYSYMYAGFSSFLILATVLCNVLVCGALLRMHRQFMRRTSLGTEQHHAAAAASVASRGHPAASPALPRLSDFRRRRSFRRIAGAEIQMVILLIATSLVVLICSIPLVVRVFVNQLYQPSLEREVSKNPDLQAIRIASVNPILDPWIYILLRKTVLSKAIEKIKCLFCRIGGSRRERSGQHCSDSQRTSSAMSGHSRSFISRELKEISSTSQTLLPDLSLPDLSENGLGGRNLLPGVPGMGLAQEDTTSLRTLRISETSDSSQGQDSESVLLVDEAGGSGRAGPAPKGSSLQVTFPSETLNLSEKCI

O=C(O)c1ccc(CCC[C@@H]2[C@@H](COc3cc(F)cc(F)c3)[C@H](O)C[C@H]2Cl)s1 [5-(3-((1R,2S,3R,5R)-5-chloro-2-((3,5-difluorophenoxy)methyl)-3-hydroxycyclopentyl)propyl)thiophene-2-carboxylic acid]
Ki (hEP2 [1]): 3 nM | Ki (hEP4 [2]): 1280 nM | EC50 (hEP3; [9]): 4140 nM | EC50 (hEP2 [3]): 0.3 nM | EC50 (hEP4 [4]): 5290 nM | EC50 (hDP): 12100 nM | EC50 (hEP2 [5]): 216 nM

O=C(O)c1ccc(CCC[C@@H]2[C@@H](COc3cc(F)cc(C(F)(F)F)c3)[C@H](O)C[C@H]2Cl)s1 [5-(3-((1R,2S,3R,5R)-5-chloro-2-((3-fluoro-5-(trifluoromethyl)phenoxy)methyl)-3-hydroxycyclopentyl)propyl)thiophene-2-carboxylic acid]
Ki (hEP2 [1]): 2.4 nM | Ki (hEP4 [2]): 354 nM | EC50 (hEP3; [9]): 6820 nM | EC50 (hEP2 [3]): 0.2 nM | EC50 (hEP4 [4]): 12300 nM | EC50 (hEP2 [5]): 1150 nM

Cc1cc(OC[C@@H]2[C@@H](CCCc3ccc(C(=O)O)s3)[C@H](Cl)C[C@H]2O)cc(C)c1Cl [5-(3-((1R,2S,3R,5R)-5-chloro-2-((4-chloro-3,5-dimethylphenoxy)methyl)-3-hydroxycyclopentyl)propyl)thiophene-2-carboxylic acid]
Ki (hEP2 [1]): 0.7 nM | Ki (hEP4 [2]): 170 nM | EC50 (hEP2 [3]): 0.2 nM | EC50 (hEP4 [4]): > 10000 nM | EC50 (hDP): 7190 nM | EC50 (hEP2 [5]): 1490 nM

O=C(O)c1ccc(CCC[C@@H]2[C@@H](COc3ccc(Cl)c4ccccc34)[C@H](O)C[C@H]2Cl)s1 [5-(3-((1R,2S,3R,5R)-5-chloro-2-((4-chloronaphthalen-1-yloxy)methyl)-3-hydroxycyclopentyl)propyl)thiophene-2-carboxylic acid]
Ki (hEP2 [1]): 10 nM | Ki (hEP4 [2]): 1930 nM | EC50 (hEP2 [3]): 2.5 nM | EC50 (hEP4 [4]): 15000 nM | EC50 (hDP): 13500 nM | EC50 (hEP2 [5]): 3530 nM

CCCc1cccc(OC[C@@H]2[C@@H](CCCc3ccc(C(=O)O)s3)[C@H](Cl)C[C@H]2O)c1 [5-(3-((1R,2S,3R,5R)-5-chloro-3-hydroxy-2-((3-propylphenoxy)methyl)cyclopentyl)propyl)thiophene-2-carboxylic acid]
Ki (hEP2 [1]): 6 nM | Ki (hEP4 [2]): 471 nM | EC50 (hEP3; [9]): 6520 nM | EC50 (hEP2 [3]): 0.4 nM | EC50 (hEP4 [4]): > 10000 nM | EC50 (hEP1): 17900 nM | EC50 (hEP2 [5]): 33 nM

O=C(O)c1ccc(CCC[C@@H]2[C@@H](COc3cccc4c3CCCC4)[C@H](O)C[C@H]2Cl)s1 [5-(3-((1R,2S,3R,5R)-5-chloro-3-hydroxy-2-((5,6,7,8-tetrahydronaphthalen-1-yloxy)methyl)cyclopentyl)propyl)thiophene-2-carboxylic acid]
Ki (hEP2 [1]): 37 nM | Ki (hEP4 [2]): 1460 nM | EC50 (hEP3; [9]): 5790 nM | EC50 (hEP2 [3]): 2.5 nM | EC50 (hEP4 [4]): 9830 nM | EC50 (hDP): 8620 nM | EC50 (hEP2 [5]): 175 nM

O=C(O)c1ccc(CCC[C@@H]2[C@@H](COc3cccc4ccccc34)[C@H](O)C[C@H]2Cl)s1 [5-(3-((1R,2S,3R,5R)-5-chloro-3-hydroxy-2-((naphthalen-1-yloxy)methyl)cyclopentyl)propyl)thiophene-2-carboxylic acid]
Ki (hEP2 [1]): 5.5 nM | Ki (hEP4 [2]): 114 nM | EC50 (hEP3; [9]): 4030 nM | EC50 (hEP2 [3]): 0.7 nM | EC50 (hEP4 [4]): > 10000 nM | EC50 (hDP): 4150 nM | EC50 (hEP2 [5]): 949 nM

O=C(O)c1ccc(CCC[C@@H]2[C@@H](COc3ccccc3)[C@H](O)C[C@H]2Cl)s1 [5-(3-((1R,2S,3R,5R)-5-chloro-3-hydroxy-2-(phenoxymethyl)cyclopentyl)propyl)thiophene-2-carboxylic acid]
Ki (hEP2 [1]): 29 nM | Ki (hEP4 [2]): 2320 nM | EC50 (hEP3; [9]): 9650 nM | EC50 (hEP2 [3]): 3.4 nM | EC50 (hEP4 [4]): 8420 nM | EC50 (hDP): 9090 nM | EC50 (hEP2 [5]): 235 nM

O=C(O)CCC/C=C\C[C@@H]1[C@@H](COc2cc(Cl)cc(CO)c2)[C@H](O)C[C@H]1Cl [(Z)-7-[(1R,2S,3R,5R)-5-Chloro-2-(3-chloro-5-hydroxymethyl-phenoxymethyl)-3-hydroxy-cyclopentyl]-hept-5-enoic acid]
maximum ocular surface hyperemia (OSH) score (normotensive dogs [6]; 0.1%): 0.9 | inhibition in vivo at 0.1 % (normotensive dogs [7]): 13.5% | maximum IOP decrease from baseline ([8]; 0.1%): 8 mmHg | maximum IOP decrease from baseline (percent) ([8]; 0.1%): 21%

O=C(O)c1ccc(CCC[C@@H]2[C@@H](COc3cc(Cl)cc(Cl)c3)[C@H](O)C[C@H]2Cl)s1 [Example 4, 5-{3-[(1R,2S,3R,5R)-5-Chloro-2-(3,5-dichloro-phenoxymethyl)-3-hydroxy-cyclopentyl]-propyl}-thiophene-2-carboxylic acid]
maximum ocular surface hyperemia (OSH) score (normotensive dogs [6]; 0.005%): 1.75 | maximum ocular surface hyperemia (OSH) score (normotensive dogs [6]; 0.01%): 2.0 | maximum ocular surface hyperemia (OSH) score (normotensive dogs [6]; 0.1%): 2.75 | inhibition in vivo at 0.005 % (normotensive dogs [7]; 0.005%): 35% | inhibition in vivo at 0.01 % (normotensive dogs [7]; 0.01%): 43% | inhibition in vivo at 0.1 % (normotensive dogs [7]): 48% | maximum IOP decrease from baseline ([8]; 0.01%): 20.2 mmHg | maximum IOP decrease from baseline (percent) ([8]; 0.01%): 53%

CC(C)OC(=O)CCC/C=C\C[C@@H]1[C@@H](COc2cc(Cl)cc(CO)c2)[C@H](O)C[C@H]1Cl [Example 12, (Z)-Isopropyl 7-((1R,2S,3R,5R)-5-chloro-2-((3-chloro-5-(hydroxymethyl)phenoxy)methyl)-3-hydroxycyclopentyl)hept-5-enoate]
maximum ocular surface hyperemia (OSH) score (normotensive dogs [6]; 0.1%): 0.8 | inhibition in vivo at 0.1 % (normotensive dogs [7]): 33% | maximum IOP decrease from baseline ([8]; 0.1%): 7.4 mmHg | maximum IOP decrease from baseline (percent) ([8]; 0.1%): 21%

CC(=O)OCc1cc(Cl)cc(OC[C@@H]2[C@@H](C/C=C\CCCC(=O)OC(C)C)[C@H](Cl)C[C@H]2O)c1 [Example 13, (Z)-Isopropyl 7-((1R,2S,3R,5R)-2-((3-(acetoxymethyl)-5-chlorophenoxy)methyl)-5-chloro-3-hydroxycyclopentyl)hept-5-enoate]
maximum ocular surface hyperemia (OSH) score (normotensive dogs [6]; 0.1%): 0.7 | inhibition in vivo at 0.1 % (normotensive dogs [7]): 20% | maximum IOP decrease from baseline ([8]; 0.1%): 8.2 mmHg | maximum IOP decrease from baseline (percent) ([8]; 0.1%): 21%

O=C(O)CCC/C=C\C[C@@H]1[C@@H](COc2cc(Cl)cc(Cl)c2)[C@H](O)C[C@H]1Cl [drawing 43, (Z)-7-[(1R,2S,3R,5R)-5-Chloro-2-(3,5-dichloro-phenoxymethyl)-3-hydroxy-cyclopentyl]-hept-5-enoic acid]
EC50 (hEP3; the 2nd table, read-out: Other Receptors hEP3): 1260 nM

— patent US8039496B2, “Therapeutic compounds” (Allergan, Inc., priority 2007, dated 2011)
